Measurements: patent publication US4309559A, “Sulphonamides useful as pesticides” (FBC Limited, priority 1977, dated 1982)

How the values were obtained:
Format in all cases: in vivo
[1] = tested on: Wheat (Triticum aestivum); assay: Post-emergence foliar spray of monocotyledons, wheat; settings: foliar spray 2.8 kg/ha, 14 days, 0=no effect, 100=complete kill
Protocol: (§1) Seeds of the monocotyledon species listed below were sown in anodised aluminium pans, 19 cm long×9.5 cm wide×5.0 cm deep, containing John Innes I potting compost. They were then watered and placed in a controlled environment room (22° C.; 65-85% relative humidity; 14 hours per day artificial illumination at 17,000 lux). 14 days after sowing, the seedlings were given a foliar spray of the compound of Example 44, formulated as an aqueous suspension together with 2000 ppm of the wetting agent Lissapol NX. The dosage rate was adjusted to be 2.8 kg active ingredient in 450 liters per hectare. After a further 14 days in the controlled environment room, the plants were visually assessed for any growth regulatory or herbicidal effect. All differences from an untreated control were scored on a scale from 0-100 where 0 signifies no effect and 100 signifies complete kill.
(§2) The compounds listed below were tested according to the procedure of Example 66 but including rice (Oryza sativa) as an additional test species.

Barley (Hordeum vulgare) = assay: Post-emergence foliar spray of monocotyledons, barley; settings: foliar spray 2.8 kg/ha, 14 days, 0=no effect, 100=complete kill
Protocol: as §1, §2

[2] = tested on: Barnyardgrass (Echinochloa crus-galli); assay: Post-emergence foliar spray of monocotyledons, barnyardgrass; settings: foliar spray 2.8 kg/ha, 14 days, 0=no effect, 100=complete kill
Protocol: as §1, §2

rice (Oryza sativa) = assay: Post-emergence foliar spray of monocotyledons, rice; settings: foliar spray 2.8 kg/ha, 14 days, 0=no effect, 100=complete kill
Protocol: as §1, §2

Cotton [3] = assay: Soil incorporation (I), cotton; settings: 21 days, 0=no effect, 100=complete suppression
Source text: (§3) Each of the compounds listed below was formulated as: […]
(§4) (I) an attaclay/sand dust and incorporated in John Innes I potting compost at a rate equivalent to 6.5 and 3.25 parts per million weight/volume of active ingredient to soil and placed in anodised aluminium pans, 19 cm long×9.5 cm wide×5.0 cm high. This is approximately equivalent to a surface application of 2.8 and 1.4 kg active ingredient per hectare cultivated to a depth of 5 cm. Seeds of the species listed below were sown in the treated soil, one species per pan, watered and placed in a controlled environment room (22° C.; 65-85% relative humidity and 14 hours artificial illumination at 17,000 lux) for 21 days.
(§5) The plants were then visually assessed for any growth regulatory or herbicidal effects. All differences from an untreated control were scored on a scale from 0-100, where 0 signifies no effect and 100 signifies complete suppression.
(§6) The results are shown in the following table where I stands for soil incorporation and II for surface spray.

Tomato [4] = assay: Soil incorporation (I), tomato; settings: 21 days, 0=no effect, 100=complete suppression
Source text: as §3, §4, §5, §6

Wheat [5] = assay: Soil incorporation (I), wheat; settings: 21 days, 0=no effect, 100=complete suppression
Source text: as §3, §4, §5, §6

Barley [6] = assay: Soil incorporation (I), barley; settings: 21 days, 0=no effect, 100=complete suppression
Source text: as §3, §4, §5, §6

Barnyard Grass [7] = assay: Soil incorporation (I), barnyard grass; settings: 21 days, 0=no effect, 100=complete suppression
Source text: as §3, §4, §5, §6

Rice [8] = assay: Soil incorporation (I), rice; settings: 21 days, 0=no effect, 100=complete suppression
Source text: as §3, §4, §5, §6

Carrot [9] = assay: Soil incorporation (I), carrot; settings: 21 days, 0=no effect, 100=complete suppression
Source text: as §3, §4, §5, §6

Cotton [10] = assay: Surface spray (II), cotton; settings: 21 days, 0=no effect, 100=complete suppression
Source text: as §3
(§7) (II) An aqueous suspension together with 1000 ppm of the wetting agent Lissapol NX. The surfaces of an additional set of pans with seeds already sown were then sprayed with 2.8 or 1.4 kg/ha in 450 liters/hectare, and the pans kept in the controlled environment room for 21 days.
as §5, §6

Tomato [11] = assay: Surface spray (II), tomato; settings: 21 days, 0=no effect, 100=complete suppression
Source text: as §3, §7, §5, §6

Wheat [12] = assay: Surface spray (II), wheat; settings: 21 days, 0=no effect, 100=complete suppression
Source text: as §3, §7, §5, §6

Barley [13] = assay: Surface spray (II), barley; settings: 21 days, 0=no effect, 100=complete suppression
Source text: as §3, §7, §5, §6

Barnyard Grass [14] = assay: Surface spray (II), barnyard grass; settings: 21 days, 0=no effect, 100=complete suppression
Source text: as §3, §7, §5, §6

Rice [15] = assay: Surface spray (II), rice; settings: 21 days, 0=no effect, 100=complete suppression
Source text: as §3, §7, §5, §6

Carrot [16] = assay: Surface spray (II), carrot; settings: 21 days, 0=no effect, 100=complete suppression
Source text: as §3, §7, §5, §6

Structure (SMILES) | growth regulatory or herbicidal effect score [1] | growth regulatory or herbicidal effect score (Barley (Hordeum vulgare)) | growth regulatory or herbicidal effect score [2] | growth regulatory or herbicidal effect score (rice (Oryza sativa)) | growth regulatory or herbicidal effect score (Cotton [3]; I soil incorporation 3.25 ppm) | growth regulatory or herbicidal effect score (Cotton [3]; I soil incorporation 6.5 ppm) | growth regulatory or herbicidal effect score (Tomato [4]; I soil incorporation 3.25 ppm) | growth regulatory or herbicidal effect score (Tomato [4]; I soil incorporation 6.5 ppm) | growth regulatory or herbicidal effect score (Wheat [5]; I soil incorporation 3.25 ppm) | growth regulatory or herbicidal effect score (Wheat [5]; I soil incorporation 6.5 ppm) | growth regulatory or herbicidal effect score (Barley [6]; I soil incorporation 3.25 ppm) | growth regulatory or herbicidal effect score (Barley [6]; I soil incorporation 6.5 ppm) | growth regulatory or herbicidal effect score (Barnyard Grass [7]; I soil incorporation 3.25 ppm) | growth regulatory or herbicidal effect score (Barnyard Grass [7]; I soil incorporation 6.5 ppm) | growth regulatory or herbicidal effect score (Rice [8]; I soil incorporation 3.25 ppm) | growth regulatory or herbicidal effect score (Rice [8]; I soil incorporation 6.5 ppm) | growth regulatory or herbicidal effect score (Cotton [10]; row 3.25 ppm (1.4 kg/ha)) | growth regulatory or herbicidal effect score (Cotton [10]; row 6.5 ppm (2.8 kg/ha)) | growth regulatory or herbicidal effect score (Tomato [11]; row 3.25 ppm (1.4 kg/ha)) | growth regulatory or herbicidal effect score (Tomato [11]; row 6.5 ppm (2.8 kg/ha)) | further results
CS(=O)(=O)N(CC(N)=S)c1ccc(Cl)c(Cl)c1 [Example 85, N-(thiocarbamoylmethyl)-3,4-dichloromethanesulphonanilide] | 0 | 0 | 90 | 0 | 0 | 0 | 0 | 0 | 0 | 0 | 0 | 0 | 90 | 90 | 0 | 0 | 0 | 0 | 0 | 0 | growth regulatory or herbicidal effect score (Carrot [9]; I soil incorporation 3.25 ppm): 0; growth regulatory or herbicidal effect score (Carrot [9]; I soil incorporation 6.5 ppm): 0; growth regulatory or herbicidal effect score (Wheat [12]; row 3.25 ppm (1.4 kg/ha)): 0; growth regulatory or herbicidal effect score (Wheat [12]; row 6.5 ppm (2.8 kg/ha)): 0; growth regulatory or herbicidal effect score (Barley [13]; row 3.25 ppm (1.4 kg/ha)): 0; growth regulatory or herbicidal effect score (Barley [13]; row 6.5 ppm (2.8 kg/ha)): 0; growth regulatory or herbicidal effect score (Barnyard Grass [14]; row 3.25 ppm (1.4 kg/ha)): 90; growth regulatory or herbicidal effect score (Barnyard Grass [14]; row 6.5 ppm (2.8 kg/ha)): 100; growth regulatory or herbicidal effect score (Rice [15]; row 3.25 ppm (1.4 kg/ha)): 0; growth regulatory or herbicidal effect score (Rice [15]; row 6.5 ppm (2.8 kg/ha)): 0; growth regulatory or herbicidal effect score (Carrot [16]; row 3.25 ppm (1.4 kg/ha)): 0; growth regulatory or herbicidal effect score (Carrot [16]; row 6.5 ppm (2.8 kg/ha)): 0
Cc1ccc(N(CC#N)S(C)(=O)=O)cc1Cl [Example 131] | 5 | 10 | 90 | 0 | 0 | 0 | 0 | 0 | 0 | 0 | 0 | 0 | 50 | 70 | 0 | 0 | 0 | 0 | 0 | 0 | growth regulatory or herbicidal effect score (Carrot [9]; I soil incorporation 3.25 ppm): 0; growth regulatory or herbicidal effect score (Carrot [9]; I soil incorporation 6.5 ppm): 0; growth regulatory or herbicidal effect score (Wheat [12]; row 3.25 ppm (1.4 kg/ha)): 0; growth regulatory or herbicidal effect score (Wheat [12]; row 6.5 ppm (2.8 kg/ha)): 0; growth regulatory or herbicidal effect score (Barley [13]; row 3.25 ppm (1.4 kg/ha)): 0; growth regulatory or herbicidal effect score (Barley [13]; row 6.5 ppm (2.8 kg/ha)): 0; growth regulatory or herbicidal effect score (Barnyard Grass [14]; row 3.25 ppm (1.4 kg/ha)): 60; growth regulatory or herbicidal effect score (Barnyard Grass [14]; row 6.5 ppm (2.8 kg/ha)): 80; growth regulatory or herbicidal effect score (Rice [15]; row 3.25 ppm (1.4 kg/ha)): 0; growth regulatory or herbicidal effect score (Rice [15]; row 6.5 ppm (2.8 kg/ha)): 0; growth regulatory or herbicidal effect score (Carrot [16]; row 3.25 ppm (1.4 kg/ha)): 0; growth regulatory or herbicidal effect score (Carrot [16]; row 6.5 ppm (2.8 kg/ha)): 0
Cc1ccc(N(CC(N)=S)S(C)(=O)=O)cc1Cl [Example 150] | 0 | 0 | 80 | 0 | 0 | 0 | 0 | 0 | 0 | 0 | 0 | 0 | 60 | 60 | 0 | 0 | 0 | 0 | 0 | 0 | growth regulatory or herbicidal effect score (Wheat [12]; row 3.25 ppm (1.4 kg/ha)): 0; growth regulatory or herbicidal effect score (Wheat [12]; row 6.5 ppm (2.8 kg/ha)): 0; growth regulatory or herbicidal effect score (Barley [13]; row 3.25 ppm (1.4 kg/ha)): 0; growth regulatory or herbicidal effect score (Barley [13]; row 6.5 ppm (2.8 kg/ha)): 0; growth regulatory or herbicidal effect score (Barnyard Grass [14]; row 3.25 ppm (1.4 kg/ha)): 50; growth regulatory or herbicidal effect score (Barnyard Grass [14]; row 6.5 ppm (2.8 kg/ha)): 70; growth regulatory or herbicidal effect score (Rice [15]; row 3.25 ppm (1.4 kg/ha)): 0; growth regulatory or herbicidal effect score (Rice [15]; row 6.5 ppm (2.8 kg/ha)): 0
CCS(=O)(=O)N(CC(N)=S)c1ccc(Cl)c(Cl)c1 [Example 156] | 0 | 0 | 90 | 0 | 0 | 0 | 0 | 0 | 0 | 0 | 0 | 0 | 70 | 90 | 0 | 0 | 0 | 0 | 0 | 0 | growth regulatory or herbicidal effect score (Wheat [12]; row 3.25 ppm (1.4 kg/ha)): 0; growth regulatory or herbicidal effect score (Wheat [12]; row 6.5 ppm (2.8 kg/ha)): 0; growth regulatory or herbicidal effect score (Barley [13]; row 3.25 ppm (1.4 kg/ha)): 0; growth regulatory or herbicidal effect score (Barley [13]; row 6.5 ppm (2.8 kg/ha)): 0; growth regulatory or herbicidal effect score (Barnyard Grass [14]; row 3.25 ppm (1.4 kg/ha)): 80; growth regulatory or herbicidal effect score (Barnyard Grass [14]; row 6.5 ppm (2.8 kg/ha)): 100; growth regulatory or herbicidal effect score (Rice [15]; row 3.25 ppm (1.4 kg/ha)): 0; growth regulatory or herbicidal effect score (Rice [15]; row 6.5 ppm (2.8 kg/ha)): 0
